# Target: rhCatC (Cathepsin C) (Homo sapiens, UniProt P53634)
# Assay: In Vitro CatC Enzyme Assay
# Format: biochemical
# Details: read-out: Cat C Enzy (Cathepsin C inhibitory activity, IC50)
# Procedure: In Vitro CatC Enzyme Assay
# The CatC enzyme assay was performed in black 384-well plate. Firstly, rhCatC (440 nM) was activated by rhCatL (300 nM) in activation buffer (25 mM MES, 5 mM DTT, pH 6.0) at room temperature for 2 h and then activated rhCatC was diluted to 4.4 nM in assay buffer (25 mM MES, 50 mM NaCl, 5 mM DTT, 0.01% (v/v) Triton X100, pH 6.0), 14 μL activated rhCatC and 1 μL compound in 10% DMSO or 10% DMSO were incubated at room temperature for 3 h, and 5 μL substrate (Gly-Phe-AFC) was added to final concentration of 100 μM. After 60 min reaction, the product of the reaction was measured in the Enspire plate reader using Ex λ400 nm and Em λ505 nm for AFC. A standard irreversible CatC inhibitor 10 by AstraZeneca (J. Med. Chem. 2014, 57, 2357-2367) was used as an inhibitor control in the assay.
# Sequence of rhCatC (Cathepsin C) (P53634 25-134 limits assumed): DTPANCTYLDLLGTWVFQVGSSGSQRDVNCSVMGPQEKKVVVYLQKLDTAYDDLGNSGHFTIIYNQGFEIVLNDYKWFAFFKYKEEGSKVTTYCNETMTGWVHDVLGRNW
# Sequence of rhCatC (Cathepsin C) (P53634 231-394 limits assumed): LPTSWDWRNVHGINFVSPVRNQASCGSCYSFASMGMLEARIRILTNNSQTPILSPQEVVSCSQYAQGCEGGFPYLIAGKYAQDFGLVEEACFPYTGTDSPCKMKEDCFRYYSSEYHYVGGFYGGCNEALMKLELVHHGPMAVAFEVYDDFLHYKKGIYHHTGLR
# Sequence of rhCatC (Cathepsin C) (P53634 395-463 limits assumed): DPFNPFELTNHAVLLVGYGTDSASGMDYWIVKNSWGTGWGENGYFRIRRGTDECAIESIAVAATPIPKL
row,SMILES,IC50
1,"C=CC(=O)Nc1cccc(Oc2nc(Nc3ccc(N4CCN(C)CC4)cc3OC)ccc2Cl)c1 [Compound 1, N-(3-((3-chloro-6-((2-methoxy-4-(4-methylpiperazin-1-yl)phenyl)amino)pyridin-2-yl)oxy)phenyl)acrylamide]",300 to 30000 nM
2,"C=CC(=O)Nc1cccc(Oc2nc(Nc3ccc(N4CCOCC4)cc3)ccc2Cl)c1 [Compound 2, N-(3-((3-chloro-6-((4-morpholinophenyl)amino)pyridin-2-yl)oxy)phenyl)acrylamide]",300 to 30000 nM
3,"C=CC(=O)Nc1cccc(Oc2nc(Nc3ccccc3)ccc2Cl)c1 [Compound 3, N-(3-((3-chloro-6-(phenylamino)pyridin-2-yl)oxy)phenyl)acrylamide]",300 to 30000 nM
4,"C=CC(=O)Nc1cccc(Oc2nc(Nc3ccc(N4CCN(C)CC4)cc3)ccc2Cl)c1 [Compound 4, N-(3-((3-chloro-6-((4-(4-methylpiperazin-1-yl)phenyl)amino)pyridin-2-yl)oxy)phenyl)acrylamide]",300 to 30000 nM
5,"C=CC(=O)Nc1cccc(Oc2cccc(Nc3ccc(N4CCN(C)CC4)cc3)n2)c1 [Compound 5, N-(3-((6-((4-(4-methylpiperazin-1-yl)phenyl)amino)pyridin-2-yl)oxy)phenyl)acrylamide]",300 to 30000 nM
6,"C=CC(=O)Nc1cccc(Oc2nc(Nc3cccc(CN)c3)ccc2Cl)c1 [Compound 6, N-(3-((6-((3-(aminomethyl)phenyl)amino)-3-chloropyridin-2-yl)oxy)phenyl)acrylamide]",300 to 30000 nM
7,"C=CC(=O)Nc1cccc(Oc2nc(Nc3ccc(N4CCNCC4)cc3)ccc2Cl)c1 [Compound 7, N-(3-((3-chloro-6-((4-(piperazin-1-yl)phenyl)amino)pyridin-2-yl)oxy)phenyl)acrylamide]",300 to 30000 nM
8,C/C=C/C(=O)Nc1cccc(Oc2nc(Nc3ccc(N4CCNCC4)cc3)ccc2Cl)c1 [Compound 8],300 to 30000 nM
9,"C=CC(=O)Nc1cccc(Oc2nc(Nc3ccc(N4CCC[C@@H](N)C4)cc3OC)ccc2Cl)c1 [Compound 9, (R)-N-(3-((6-((4-(3-aminopiperidin-1-yl)-2-methoxyphenyl)amino)-3-chloropyridin-2-yl)oxy)phenyl)acrylamide]",300 to 30000 nM
10,"C=CC(=O)Nc1cccc(Oc2nc(Nc3ccc(CCN)cc3)ccc2Cl)c1 [Compound 10, N-(3-((6-((4-(2-aminoethyl)phenyl)amino)-3-chloropyridin-2-yl)oxy)phenyl)acrylamide]",300 to 30000 nM
11,"C=CC(=O)Nc1cccc(Oc2nc(Nc3ccc(N4CCN(C)CC4)c(OC)c3)ccc2Cl)c1 [Compound 11, N-(3-((3-chloro-6-((3-methoxy-4-(4-methylpiperazin-1-yl)phenyl)amino)pyridin-2-yl)oxy)phenyl)acrylamide]",300 to 30000 nM
12,"COc1cc(N2CCN(C)CC2)ccc1Nc1ccc(Cl)c(Oc2cccc(NC(=O)C=C(C)C)c2)n1 [Compound 12, N-(3-((3-chloro-6-((2-methoxy-4-(4-methylpiperazin-1-yl)phenyl)amino)pyridin-2-yl)oxy)phenyl)-3-methylbut-2-enamide]",300 to 30000 nM
13,"C#CC(=O)Nc1cccc(Oc2nc(Nc3ccc(N4CCN(C)CC4)cc3OC)ccc2Cl)c1 [Compound 13, N-(3-((3-chloro-6-((2-methoxy-4-(4-methylpiperazin-1-yl)phenyl)amino)pyridin-2-yl)oxy)phenyl)propiolamide]",300 to 30000 nM
14,"C=CC(=O)Nc1cccc(Oc2nc(Nc3ccc(N4CCN(CC5CC5)CC4)cc3)ccc2Cl)c1 [Compound 14, N-(3-((3-chloro-6-((4-(4-(cyclopropylmethyl)piperazin-1-yl)phenyl)amino)pyridin-2-yl)oxy)phenyl)acrylamide]",300 to 30000 nM
15,"C=CC(=O)Nc1cccc(Oc2nc(Nc3ccc(N4CCN(CC5CCCC5)CC4)cc3)ccc2Cl)c1 [Compound 15, N-(3-((3-chloro-6-((4-(4-(cyclopentylmethyl)piperazin-1-yl)phenyl)amino)pyridin-2-yl)oxy)phenyl)acrylamide]",300 to 30000 nM
16,"C=CC(=O)Nc1cccc(Oc2nc(Nc3ccc(N4CCN(C)CC4)cc3OC)ccc2C(F)(F)F)c1 [Compound 16, N-(3-((6-((2-methoxy-4-(4-methylpiperazin-1-yl)phenyl)amino)-3-(trifluoromethyl)pyridin-2-yl)oxy)phenyl)acrylamide]",300 to 30000 nM
17,"C=CC(=O)Nc1cccc(Oc2nc(Nc3ccc(N4CCN(C)CC4)cc3OC)ccc2C#N)c1 [Compound 17, N-(3-((3-cyano-6-((2-methoxy-4-(4-methylpiperazin-1-yl)phenyl)amino)pyridin-2-yl)oxy)phenyl)acrylamide]",300 to 30000 nM

row,SMILES,IC50
1,"C=CC(=O)Nc1cc(Oc2nc(Nc3ccc(N4CCN(C)CC4)cc3OC)ccc2Cl)ccc1C [Compound 18, N-(5-((3-chloro-6-((2-methoxy-4-(4-methylpiperazin-1-yl)phenyl)amino)pyridin-2-yl)oxy)-2-methylphenyl)acrylamide]",300 to 30000 nM
2,"C=CC(=O)Nc1cccc(Nc2nc(Nc3ccc(N4CCN(C)CC4)cc3OC)ccc2Cl)c1 [Compound 19, N-(3-((3-chloro-6-((2-methoxy-4-(4-methylpiperazin-1-yl)phenyl)amino)pyridin-2-yl)amino)phenyl)acrylamide]",300 to 30000 nM
3,"C=CC(=O)Nc1cccc(Oc2nc(Nc3ccc(N4CCN(C)CC4)cc3OC)ccc2N2CCCC2)c1 [Compound 20, N-(3-((6-((2-methoxy-4-(4-methylpiperazin-1-yl)phenyl)amino)-3-(pyrrolidin-1-yl)pyridin-2-yl)oxy)phenyl)acrylamide]",3 to 300 nM
4,"C=CC(=O)Nc1cccc(Oc2cccc(Nc3ccc(N4CCN(C)CC4)cc3OC)n2)c1 [Compound 21, N-(3-((6-((2-methoxy-4-(4-methylpiperazin-1-yl)phenyl)amino)pyridin-2-yl)oxy)phenyl)acrylamide]",300 to 30000 nM
5,"C=CC(=O)Nc1cccc(Oc2nc(Nc3ccc(N4CCN(C)CC4)cc3OC)ccc2N(C)C)c1 [Compound 22, N-(3-((3-(dimethylamino)-6-((2-methoxy-4-(4-methylpiperazin-1-yl)phenyl)amino)pyridin-2-yl)ox)phenyl)acrylamide]",300 to 30000 nM
6,"C#Cc1ccc(Nc2ccc(N3CCN(C)CC3)cc2OC)nc1Oc1cccc(NC(=O)C=C)c1 [Compound 23, N-(3-((3-ethynyl-6-((2-methoxy-4-(4-methylpiperazin-1-yl)phenyl)amino)pyridin-2-yl)oxy)phenyl)acrylamide]",300 to 30000 nM
7,"C=CC(=O)Nc1cccc(N(C)c2cccc(Nc3ccc(N4CCN(C)CC4)cc3OC)n2)c1 [Compound 24, N-(3-((6-((2-methoxy-4-(4-methylpiperazin-1-yl)phenyl)amino)pyridin-2-yl)(methyl)amino)phenyl)acrylamide]",300 to 30000 nM
8,"C=CC(=O)Nc1cccc(N(Cc2ccccc2)c2cccc(Nc3ccc(N4CCN(C)CC4)cc3OC)n2)c1 [Compound 25, N-(3-(benzyl(6-((2-methoxy-4-(4-methylpiperazin-1-yl)phenyl)amino)pyridin-2-yl)amino)phenyl)acrylamide]",300 to 30000 nM
9,C=CC(=O)Nc1cccc(Oc2nc(N(C)c3ccc(N4CCNCC4)cc3)ccc2Cl)c1 [Compound 26],300 to 30000 nM
10,"C=CC(=O)Nc1cccc(Oc2nc(N(Cc3ccccc3)c3ccc(N4CCNCC4)cc3)ccc2Cl)c1 [Compound 27, N-(3-((6-(benzyl(4-(piperazin-1-yl)phenyl)amino)-3-chloropyridin-2-yl)oxy)phenyl)acrylamide]",300 to 30000 nM
11,"C=CC(=O)Nc1cc(Oc2nc(Nc3ccc(N4CCN(C)CC4)cc3OC)ccc2N2CCCC2)ccc1C [Compound 29, N-(5-((6-((2-methoxy-4-(4-methylpiperazin-1-yl)phenyl)amino)-3-(pyrrolidin-1-yl)pyridin-2-yl)oxy)-2-methylphenyl)acrylamide]",3 to 300 nM
12,"C=CC(=O)Nc1cc(Oc2nc(Nc3ccc(N4CCN(C)CC4)cc3OC)ccc2N2CCOCC2)ccc1C [Compound 30, N-(5-((6-((2-methoxy-4-(4-methylpiperazin-1-yl)phenyl)amino)-3-morpholinopyridin-2-yl)oxy)-2-methylphenyl)acrylamide]",3 to 300 nM
13,"C=CC(=O)Nc1cc(Oc2nc(Nc3ccc(N4CCN(C)CC4)cc3OC)ccc2N2CCC(O)C2)ccc1C (stereo not drawn) [Compound 31, N-(5-((3-(3-hydroxypyrrolidin-1-yl)-6-((2-methoxy-4-(4-methylpiperazin-1-yl)phenyl)amino)pyridin-2-yl)oxy)-2-methylphenyl)acrylamide]",3 to 300 nM
14,"C=CC(=O)Nc1cc(Oc2nc(Nc3ccc(N4CCN(C)CC4)cc3OC)ccc2N2CCCC(O)C2)ccc1C (stereo not drawn) [Compound 32, N-(5-((3-(3-hydroxypiperidin-1-yl)-6-((2-methoxy-4-(4-methylpiperazin-1-yl)phenyl)amino)pyridin-2-yl)oxy)-2-methylphenyl)acrylamide]",3 to 300 nM
15,"C=CC(=O)Nc1cc(Oc2nc(Nc3ccc(N4CCN(C)CC4)cc3OC)ccc2N2CCN(C)CC2)ccc1C [Compound 33, N-(5-((6-((2-methoxy-4-(4-methylpiperazin-1-yl)phenyl)amino)-3-(4-methylpiperazin-1-yl)pyridin-2-yl)oxy)-2-methylphenyl)acrylamide]",3 to 300 nM
16,"C=CC(=O)Nc1cc(Oc2nc(Nc3ccc(N4CCN(C)CC4)cc3OC)ccc2-c2ccccc2)ccc1C [Compound 34, N-(5-((6-((2-methoxy-4-(4-methylpiperazin-1-yl)phenyl)amino)-3-phenylpyridin-2-yl)oxy)-2-methylphenyl)acrylamide]",3 to 300 nM

# Source: patent US20210114983A1, “Cathepsin C inhibitors” (National Institute of Biological Sciences, Beijing, priority 2018, published 2021)
